Measured values reported in patent publication US20120184016A1, “NOVEL PROTEIN AND GENE THAT CODES THEREFOR” (priority 2009, published 2012).

Key:
[1] = system: JT-SHIZ-119-derived recombinant β-galactoside-α2,6-sialyltransferase N1C0 (neuraminidase activity); assay: Substrate specificity of neuraminidase activity with PA-sugar chains, HPLC; assay type: biochemical, Photobacterium leiognathi strain JT-SHIZ-119; conditions: 30° C. for 18 hours; FIGS. 3-5, 3-7, 3-8
Procedure: The substrate specificity of neuraminidase, that is, the linkage mode of sialic acid to a sugar chain that is cleaved by the neuraminidase can be determined by, but not limited to, a method using a pyridylaminated sugar chain. More specifically, the enzyme reaction by neuraminidase is performed using PA sugar chains in which sialic acid is linked by α2,3-linkage, α2,6-linkage, or α2,8-linkage (for example, pyridylaminated sugar chains such as PA-Sugar Chain 029, PA-Sugar Chain 023, and PA-Sugar Chain 034 available from Takara Bio Inc.). The reaction product is analyzed by high performance liquid chromatography, and the amount of sialic acid that was cleaved is calculated from the retention time and peak area of the reaction product.
To reveal the specificity of the neuraminidase activity of the JT-SHIZ-119-derived recombinant β-galactoside-α2,6-sialyltransferase N1C0, reactions using a PA-sugar chain shown in Table 4, to which sialic acid is linked via α2,3-, α2,6-, or α2,8-linkage (PA-Sugar Chain 029, PA-Sugar Chain 023, or PA-Sugar Chain 034, manufactured by Takara Bio Inc.) as a substrate were performed.
To a purified enzyme solution of the JT-SHIZ-119-derived recombinant β-galactoside-α2,6-sialyltransferase N1C0 (equivalent to 0.6 U as sialyltransferase activity), 1.5 μL of a 10 pmol/μL PA-sugar chain was added, followed by reaction at 30° C. for 18 hours. After completion of the reaction, the reaction solution was treated at 100° C. for 2 minutes to inactivate the enzyme, followed by HPLC to analyze the reaction product. In the case of using PA-Sugar Chain 023 as the substrate, the pyridylaminated sugar chain was eluted and analyzed under the same conditions as those in Example 1. In the case of using PA-Sugar Chain 029 or PA-Sugar Chain 034 as the substrate, the elution was performed using eluent A (100 mM acetate-triethylamine, pH 5.0) and eluent B (100 mM acetate-triethylamine containing 0.5% n-butanol, pH 5.0) with a linear gradient of 0 to 100% eluent B (0 to 35 min), 100% eluent B (35 to 50 min), and then a linear gradient of 100% to 30% eluent B (51 to 75 min). The analysis was performed under the conditions of Example 1. FIGS. 3-2 to 3-8 show the results.

[2] = system: recombinant β-galactoside-α2,6-sialyltransferase N1C0; assay: Sugar acceptor substrate specificity (sialic acid transfer to monosaccharides/disaccharides); assay type: biochemical, Photobacterium leiognathi strain JT-SHIZ-119; parameters: Relative activity: concentration or dose not given beside the values; conditions: for transfer of sialic acid to the sugar acceptor substrate (in words) / Transferred NeuAc: purified enzyme; for transfer of sialic acid to the sugar acceptor substrate (in words): among 11 monosaccharides and disaccharides; for Transferred NeuAc: substance used as sugar acceptor substrate; for Relative activity: sialyltransferase activity represented by 100 for lactose
Procedure: Sialyltransferase activity was measured by a method described in J. Biochem., 120, 104-110 (1996) (which is hereby incorporated by reference in its entirety). Specifically, the enzyme reaction was performed using a reaction solution (30 μL) containing CMP-NeuAc (70 nmol, containing about 20000 cpm CMP-NeuAc in which NeuAc was labeled with ^14C; NeuAc represents N-acetylneuraminic acid) as a sugar donor substrate, lactose (1.25 μmol) as a sugar acceptor substrate, NaCl added to give a concentration of 0.5 M, and the enzyme prepared as described above. The enzyme reaction was carried out at 25° C. for about 10 to 180 minutes. After completion of the reaction, 1.97 mL of 5 mM phosphate buffer (pH 6.8) was added to the reaction solution, which was then applied to a Dowex 1×8 (PO4^3− form, 0.2×2 cm, manufactured by Bio-Rad Laboratories, Inc.) column. The radioactivity contained in the reaction product contained in the eluate (0 to 2 mL) from this column, that is, sialyllactose, was measured to calculate the enzyme activity. One enzyme unit (1 U) is defined as the amount of enzyme required to transfer one micromole of sialic acid per minute.
Sialic acid transfer reaction was performed using the purified enzyme, JT-SHIZ-119-derived recombinant β-galactoside-α2,6-sialyltransferase SHIZ119-N1C0, prepared in Example 3 and using various monosaccharides/disaccharides as sugar acceptor substrates. The reaction was performed by the method described in J. Biochem., 120, 104-110 (1996).
The monosaccharides used as sugar acceptor substrates were the following eight types: methyl-α-D-galactopyranoside (Gal-α-OMe), methyl-β-D-galactopyranoside (Gal-β-OMe), methyl-α-D-glucopyranoside (Glc-α-OMe), methyl-β-D-glucopyranoside (Glc-β-OMe), methyl-α-D-mannopyranoside (Man-α-OMe), methyl-β-D-mannopyranoside (Man-(3-OMe), N-acetylgalactosamine (GalNAc), and N-acetylglucosamine (GlcNAc). The disaccharides used were the following three types: lactose (Gal-β1,4-Glc), N-acetyllactosamine (Gal-β1,4-GlcNAc), and Gal-β1,3-GalNAc.
Note that the relative activity for each acceptor substrate is based on the sialyltransferase activity represented by 100 for lactose.

Q: For “GD1b-hexasaccharide [PA-Sugar Chain 034]”, which “HPLC peak after reaction of the PA-sugar chain with the purified enzyme solution” value (shortened to “HPLC peak after reaction”) [1] is on record?
A: The value was “corresponds to PA-Sugar Chain 034”.

Q: `CC(=O)N[C@H]1C(O)O[C@H](CO)[C@H](O)[C@@H]1O` (some centres unmarked) [N-Acetylgalactosamine, N-acetylgalactosamine] was tested. Which “transfer of sialic acid to the sugar acceptor substrate (in words)” value (from here on “transfer of sialic acid”) [2] did it give?
A: Its value is “efficiently transferred”.

Q: And the “Transferred NeuAc” value [2]?
A: The value was 0.29 nmol/min.

Q: And the Relative activity [2]?
A: Its Relative activity is 10%.

Q: What does the source list for `CO[C@H]1O[C@H](CO)[C@H](O)[C@H](O)[C@H]1O` [Methyl-α-D-galactopyranoside, methyl-α-D-galactopyranoside]?
A: Transferred NeuAc [2]: 0.04 nmol/min; Relative activity [2]: 1%

Q: For `CC(=O)NC1C(O)CC(OC2C(O)C(CO)OC(OC(C(O)CO)C(O)C(O)CNc3ccccn3)C2O)(C(=O)O)OC1C(O)C(O)CO` (centres unmarked) [PA-Sugar Chain 029, Neu5Acα2-3Galβ1-4Glc-PA], which “HPLC peak after reaction” value [1] is on record?
A: The value was “corresponds to PA-Sugar Chain 029”.

Q: Which “Transferred NeuAc” value [2] does the source give for `CO[C@@H]1O[C@H](CO)[C@@H](O)[C@H](O)[C@H]1O` [Methyl-β-D-glucopyranoside, methyl-β-D-glucopyranoside] here?
A: Its value is <0.01 nmol/min.

Q: For `CO[C@H]1O[C@H](CO)[C@@H](O)[C@H](O)[C@@H]1O` [Methyl-α-D-mannopyranoside, methyl-α-D-mannopyranoside], which “Transferred NeuAc” value [2] is on record?
A: Its value is <0.01 nmol/min.

Q: With `CC(=O)N[C@H]1C(O)O[C@H](CO)[C@H](O)[C@@H]1O[C@@H]1O[C@H](CO)[C@H](O)[C@H](O)[C@H]1O` (stereo partly drawn) [Gal-β1,3-GalNAc] as the compound, how does the “transfer of sialic acid” value [2] read?
A: The value was “efficiently transferred”.

Q: What about the “Transferred NeuAc” value [2] of the same compound?
A: Its value is 1.68 nmol/min.

Q: What about the Relative activity [2] of the same compound?
A: The Relative activity was 58%.

Q: Which “transfer of sialic acid” value [2] does the source give for `OC[C@H]1O[C@@H](O[C@H]2[C@H](O)[C@@H](O)C(O)O[C@@H]2CO)[C@H](O)[C@@H](O)[C@H]1O` (some centres unmarked) [Lactose, lactose] here?
A: Its value is “efficiently transferred”.

Q: And the “Transferred NeuAc” value [2]?
A: Its value is 2.88 nmol/min.

Q: What about the Relative activity [2] of the same compound?
A: The Relative activity was 100%.

Q: Which “HPLC peak after reaction” value [1] does the source give for “N-Acetyllactosamine type, disialylated biantennary [PA-Sugar Chain 023]” here?
A: The value was “corresponds to PA-Sugar Chain 001”.

Q: Which “Transferred NeuAc” value [2] does the source give for `CO[C@@H]1O[C@H](CO)[C@@H](O)[C@H](O)[C@@H]1O` [Methyl-β-D-mannopyranoside, methyl-β-D-mannopyranoside] here?
A: Its value is 0.04 nmol/min.

Q: And the Relative activity [2]?
A: Its Relative activity is 1%.

Q: With `CO[C@H]1O[C@H](CO)[C@@H](O)[C@H](O)[C@H]1O` [Methyl-α-D-glucopyranoside, methyl-α-D-glucopyranoside] as the compound, how does the “Transferred NeuAc” value [2] read?
A: Its value is <0.01 nmol/min.

Q: `CC(=O)N[C@H]1C(O)O[C@H](CO)[C@@H](O)[C@@H]1O` (some centres unmarked) [N-Acetylglucosamine, N-acetylglucosamine] was tested. Which “Transferred NeuAc” value [2] did it give?
A: The value was <0.01 nmol/min.

Q: Which “transfer of sialic acid” value [2] does the source give for `CO[C@@H]1O[C@H](CO)[C@H](O)[C@H](O)[C@H]1O` [Methyl-β-D-galactopyranoside, methyl-β-D-galactopyranoside] here?
A: Its value is “efficiently transferred”.

Q: And the “Transferred NeuAc” value [2]?
A: The value was 1.1 nmol/min.

Q: And the Relative activity [2]?
A: Its Relative activity is 38%.

Q: Which “transfer of sialic acid” value [2] does the source give for `CC(=O)N[C@H]1C(O)O[C@H](CO)[C@@H](O[C@@H]2O[C@H](CO)[C@H](O)[C@H](O)[C@H]2O)[C@@H]1O` (some centres unmarked) [N-Acetyllactosamine, N-acetyllactosamine] here?
A: The value was “efficiently transferred”.

Q: And the “Transferred NeuAc” value [2]?
A: Its value is 2.96 nmol/min.

Q: And the Relative activity [2]?
A: The Relative activity was 103%.
